Source: US20060052399A1, “Oxazolidinone derivatives as antibacterial agents” (AstraZeneca AB, priority 2002, published 2006)
≈ marks a conversion by molar mass, not a printed value.

Key:
Type in all cases: cell-based
[1] = tested on: Linezolid Reistant Streptococcus pneumoniae; assay: MIC by agar dilution, linezolid resistant Streptococcus pneumoniae; details: agar with 5% defibrinated horse blood, 10^4 CFU/spot, 37° C., 5% carbon dioxide, 48 hours
Procedure: (§1) The following results were obtained on a standard in-vitro test system. The activity is described in terms of the minimum inhibitory concentration (MIC) determined by the agar-dilution technique with an inoculum size of 10^4 CFU/spot. Typically, compounds are active in the range 0.01 to 256 μg/ml.
(§2) Streptococci and enterococci were tested on agar supplemented with 5% defibrinated horse blood, an inoculum of 10^4 CFU/spot and an incubation temperature of 37° C. in an atmosphere of 5% carbon dioxide for 48 hours—blood is required for the growth of some of the test organisms. Fastidious Gram negative organisms were tested in Mueller-Hinton broth, supplemented with hemin and NAD, grown aerobically for 24 hours at 37° C., and with an innoculum of 5×10^4 CPU/well.

Haemophilus influenzae = assay: MIC in Mueller-Hinton broth, Haemophilus influenzae; details: Mueller-Hinton broth with hemin and NAD, aerobic, 24 hours, 37° C.
Procedure: as §1, §2

[2] = tested on: Staphylococcus aureus MRQR (methicillin resistant and quinolone resistant); assay: MIC by agar dilution, Staphylococcus aureus MRQR; details: 10^4 CFU/spot, 37° C., 24 hours
Procedure: as §1
(§3) Staphylococci were tested on agar, using an inoculum of 10^4 CFU/spot and an incubation temperature of 37° C. for 24 hours—standard test conditions for the expression of methicillin resistance.

Enterococcus faecium = assay: MIC by agar dilution, Enterococcus faecium; details: agar with 5% defibrinated horse blood, 10^4 CFU/spot, 37° C., 5% carbon dioxide, 48 hours
Procedure: as §1, §2

Moraxella catarrhalis = assay: MIC in Mueller-Hinton broth, Moraxella catarrhalis; details: Mueller-Hinton broth with hemin and NAD, aerobic, 24 hours, 37° C.
Procedure: as §1, §2

[3] = tested on: Staphylococcus aureus MSQS (methicillin sensitive and quinolone sensitive); assay: MIC by agar dilution, Staphylococcus aureus MSQS; details: 10^4 CFU/spot, 37° C., 24 hours
Procedure: as §1, §3

Streptococcus pneumoniae = assay: MIC by agar dilution, Streptococcus pneumoniae; details: agar with 5% defibrinated horse blood, 10^4 CFU/spot, 37° C., 5% carbon dioxide, 48 hours
Procedure: as §1, §2

MIC [1]: 4 µg/mL (≈ 9.14 µM)
MIC (Haemophilus influenzae): > 64 µg/mL
MIC [2]: 2 µg/mL (≈ 4.57 µM)
MIC (Enterococcus faecium): 1 µg/mL (≈ 2.29 µM)
MIC (Moraxella catarrhalis): 0.5 µg/mL (≈ 1.14 µM)
MIC [3]: 2 µg/mL (≈ 4.57 µM)
MIC (Streptococcus pneumoniae): 0.5 µg/mL (≈ 1.14 µM)
SMILES: Cn1nnnc1-c1ccc(-c2ccc(N3CC(CNC(=O)C4CC4)OC3=O)cc2F)cn1 (stereo in doubt) [Example 2, N-[[(5R)-3-[3-Fluoro-4-[6-(1-methyl-1H-1,2,3,4-tetrazol-5-yl)-3-Pyridinyl]phenyl]oxazolidin-2-on-5-yl]methyl]cycloproanecarboxamide]
